This note sets out measurements from ChEMBL document CHEMBL5247653, “Discovery of Clinical Candidate ACT-777991, a Potent CXCR3 Antagonist for Antigen-Driven and Inflammatory Pathologies” (J Med Chem, 2023).

For series [1], the target named is T1, C-X-C chemokine receptor type 3 (Homo sapiens, UniProt P49682).
T1 sequence (P49682 whole entry): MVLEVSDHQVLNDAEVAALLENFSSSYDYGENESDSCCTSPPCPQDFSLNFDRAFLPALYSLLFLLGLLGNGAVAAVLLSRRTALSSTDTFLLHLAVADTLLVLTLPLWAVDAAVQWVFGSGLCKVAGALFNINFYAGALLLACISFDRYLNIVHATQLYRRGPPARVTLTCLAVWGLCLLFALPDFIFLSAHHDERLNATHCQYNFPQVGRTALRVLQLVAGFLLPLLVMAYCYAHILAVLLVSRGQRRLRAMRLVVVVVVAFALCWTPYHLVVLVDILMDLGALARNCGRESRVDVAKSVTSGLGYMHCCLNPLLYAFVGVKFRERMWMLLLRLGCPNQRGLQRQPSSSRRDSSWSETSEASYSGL
As to the kind of experiment: Antagonist activity at CXCR3 (unknown origin) in human T cells in venous blood assessed as receptor internalization incubated for 30 mins in presence of CXCL10 by flow cytometric analysis. The series is classed as cell-based, T cell.

For series [2], the target named is Voltage-gated inwardly rectifying potassium channel KCNH2 (Homo sapiens, UniProt Q12809). As to the kind of experiment: Inhibition of human ERG stably expressed in CHO cells at -80 mV holding voltage by automated QPatch electrophysiological assay. The series is classed as toxicity, cell-based. A general note: The patch-clamp technique gives a direct electrical read-out from membranes.
Voltage-gated inwardly rectifying potassium channel KCNH2, sequence (Q12809 whole entry): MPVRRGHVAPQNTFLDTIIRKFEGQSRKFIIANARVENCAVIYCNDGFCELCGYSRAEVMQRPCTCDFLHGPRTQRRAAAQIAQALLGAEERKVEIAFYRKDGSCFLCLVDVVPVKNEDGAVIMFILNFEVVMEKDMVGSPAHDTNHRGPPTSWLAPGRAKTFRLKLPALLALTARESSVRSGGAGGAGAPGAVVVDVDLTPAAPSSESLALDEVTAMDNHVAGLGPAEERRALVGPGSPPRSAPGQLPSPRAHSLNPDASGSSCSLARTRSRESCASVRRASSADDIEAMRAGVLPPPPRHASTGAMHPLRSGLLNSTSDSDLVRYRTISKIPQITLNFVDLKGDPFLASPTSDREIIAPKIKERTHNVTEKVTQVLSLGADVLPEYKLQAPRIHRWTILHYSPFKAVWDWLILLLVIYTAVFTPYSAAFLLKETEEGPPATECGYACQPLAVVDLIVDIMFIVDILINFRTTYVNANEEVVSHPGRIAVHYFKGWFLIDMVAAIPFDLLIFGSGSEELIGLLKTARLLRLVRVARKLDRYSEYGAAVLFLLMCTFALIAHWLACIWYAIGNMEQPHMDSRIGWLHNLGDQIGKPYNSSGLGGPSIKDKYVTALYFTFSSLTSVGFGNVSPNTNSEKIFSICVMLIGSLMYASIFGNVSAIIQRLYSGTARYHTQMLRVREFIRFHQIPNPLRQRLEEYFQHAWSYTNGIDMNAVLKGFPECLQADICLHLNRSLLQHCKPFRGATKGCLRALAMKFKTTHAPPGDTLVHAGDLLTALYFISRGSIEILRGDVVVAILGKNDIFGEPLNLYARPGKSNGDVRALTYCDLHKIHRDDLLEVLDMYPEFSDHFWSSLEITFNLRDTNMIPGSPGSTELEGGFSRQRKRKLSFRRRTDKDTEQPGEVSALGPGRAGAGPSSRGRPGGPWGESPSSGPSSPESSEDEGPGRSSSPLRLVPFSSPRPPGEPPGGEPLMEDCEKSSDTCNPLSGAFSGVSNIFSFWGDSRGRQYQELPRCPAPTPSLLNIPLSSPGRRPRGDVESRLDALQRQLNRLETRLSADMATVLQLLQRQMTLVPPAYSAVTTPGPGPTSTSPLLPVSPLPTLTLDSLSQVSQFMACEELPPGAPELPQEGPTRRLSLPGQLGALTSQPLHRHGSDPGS

A short description of series [3]: Metabolic stability in human liver microsomes assessed as intrinsic clearance at 1 uM and measured upto 15 mins in presence of NADPH regenerating system by LC-MS/MS analysis. The series is classed as ADME, Microsome. Particulars: read-out: CLH.
Series [4] has as its target Cytochrome P450 2D6 (Homo sapiens, UniProt P10635). As to the kind of experiment: (§1) […] recombinant human CYP2D6 mediated drug metabolism in human liver microsomes assessed as intrinsic clearance at 1 uM incubated for 45 mins in presence of NADPH regenerating system by LC-MS/MS analysis. Particulars: microsomes, 0.75 h, 1 µM. The series is classed as ADME, Microsome. (In general: Liver microsomes are a subcellular fraction often used to study metabolism.)

Series [5] addresses CYP3A4 (Homo sapiens, UniProt P08684). Put plainly: […] recombinant human CYP3A4 mediated drug metabolism in human liver microsomes assessed as intrinsic clearance at 1 uM incubated for 45 mins in presence of NADPH regenerating system by LC-MS/MS analysis. The series is classed as ADME, Microsome. To be noted: read-out: CLH.
The nature of series [6]: Lipophilicity, log D of compound. Type of series: physicochemical. To be noted: octanol/water.
Series [7] in a line: Protein binding in human plasma assessed as fraction unbound at 1 uM incubated for 6 hrs by rapid equilibrium dialysis based LC-MS/MS analysis. The series is classed as ADME, cell-free. For orientation: In equilibrium dialysis free small molecules cross a membrane that holds back macromolecules.
Series [8] can be described thus: Protein binding in rat plasma assessed as fraction unbound at 1 uM incubated for 6 hrs by rapid equilibrium dialysis based LC-MS/MS analysis. The series is classed as ADME, cell-free.
A short description of series [9]: Protein binding in dog plasma assessed as fraction unbound at 1 uM incubated for 6 hrs by rapid equilibrium dialysis based LC-MS/MS analysis. Type of series: ADME, cell-free, Canis lupus familiaris.
Series [10] is described as follows: Metabolic stability in rat liver microsomes assessed as intrinsic clearance at 1 uM and measured upto 15 mins in presence of NADPH regenerating system by LC-MS/MS analysis. Type of series: ADME, Microsome. Particulars: read-out: CLH.
Series [11] is described as follows: Metabolic stability in dog liver microsomes assessed as intrinsic clearance at 1 uM and measured upto 15 mins in presence of NADPH regenerating system by LC-MS/MS analysis. Type of series: ADME, Canis lupus familiaris, Microsome. To be noted: read-out: CLH.
Series [12] is described as follows: Metabolic stability in human hepatocytes assessed as intrinsic clearance per 10^6 cells at 1 uM by LC-MS/MS analysis. The series is classed as ADME, cell-based, Hepatocyte.
A short description of series [13]: Metabolic stability in rat hepatocytes assessed as intrinsic clearance per 10^6 cells at 1 uM by LC-MS/MS analysis. Type of series: ADME, cell-based, Hepatocyte.
Series [14] in a line: Metabolic stability in dog hepatocytes assessed as intrinsic clearance per 10^6 cells at 1 uM by LC-MS/MS analysis. The series is classed as ADME, cell-based, Canis lupus familiaris, Hepatocyte.
Series [15] in a line: Total clearance in Wistar rat plasma at 0.5 mg/kg, iv. Type of series: ADME, organism-based.
Series [16] can be described thus: Unbound clearance in Wistar rat plasma at 0.5 mg/kg, iv. To be noted: in vivo. The series is classed as ADME, organism-based.
A short description of series [17]: Total clearance in Beagle dog plasma at 1 mg/kg, iv. Type of series: ADME, organism-based, Canis lupus familiaris.
A short description of series [18]: Unbound clearance in Beagle dog plasma at 1 mg/kg, iv. Particulars: in vivo. The series is classed as ADME, organism-based, Canis lupus familiaris.
Series [19] can be described thus: Drug excretion in urine of Wistar rat assessed as unchanged drug at 0.5 mg/kg, iv. The series is classed as ADME, organism-based. To be noted: read-out: Drug excretion.
Series [20] addresses CYP2D6 (Homo sapiens, UniProt P10635). Described as §1. The series is classed as ADME, Microsome. Particulars: recombinant human CYP2D6, read-out: CLH.
Series [21] can be described thus: Drug excretion in urine of Wistar rat assessed as unchanged drug at 3 mg/kg, iv. The series is classed as ADME, organism-based. To be noted: read-out: Drug excretion.

pIC50: −log10 of the molar value.

CYP3A4, sequence (P08684 whole entry): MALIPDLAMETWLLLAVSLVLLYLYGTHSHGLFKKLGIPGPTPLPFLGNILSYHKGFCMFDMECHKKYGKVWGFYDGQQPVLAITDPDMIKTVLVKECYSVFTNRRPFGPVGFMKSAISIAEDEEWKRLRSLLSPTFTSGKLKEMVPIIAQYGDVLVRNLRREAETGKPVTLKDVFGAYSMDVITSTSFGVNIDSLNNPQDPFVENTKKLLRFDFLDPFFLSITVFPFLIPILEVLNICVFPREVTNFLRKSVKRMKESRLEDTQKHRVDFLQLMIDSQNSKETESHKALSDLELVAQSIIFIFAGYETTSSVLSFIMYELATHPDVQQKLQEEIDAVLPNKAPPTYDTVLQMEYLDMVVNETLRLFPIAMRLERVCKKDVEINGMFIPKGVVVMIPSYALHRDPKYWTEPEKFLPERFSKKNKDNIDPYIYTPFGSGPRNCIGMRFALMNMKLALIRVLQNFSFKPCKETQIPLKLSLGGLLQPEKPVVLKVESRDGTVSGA
CYP2D6, sequence (P10635 whole entry): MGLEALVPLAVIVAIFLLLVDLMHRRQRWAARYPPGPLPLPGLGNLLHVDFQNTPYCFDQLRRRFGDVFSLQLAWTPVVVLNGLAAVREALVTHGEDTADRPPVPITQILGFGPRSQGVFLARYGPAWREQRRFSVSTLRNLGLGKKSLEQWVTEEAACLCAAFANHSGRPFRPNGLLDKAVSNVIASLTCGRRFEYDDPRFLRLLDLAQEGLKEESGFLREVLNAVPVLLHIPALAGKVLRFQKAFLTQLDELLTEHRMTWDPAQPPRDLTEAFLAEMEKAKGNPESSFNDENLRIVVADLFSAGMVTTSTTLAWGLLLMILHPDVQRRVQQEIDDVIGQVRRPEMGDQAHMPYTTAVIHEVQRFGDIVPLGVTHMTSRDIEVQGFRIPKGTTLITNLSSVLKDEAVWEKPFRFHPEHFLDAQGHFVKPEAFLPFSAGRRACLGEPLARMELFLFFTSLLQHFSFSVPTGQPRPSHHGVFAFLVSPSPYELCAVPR
Cytochrome P450 2D6, sequence (P10635 whole entry): as above

For orientation: pIC50 means −log10 of the IC50, conventionally taken in molar units. Broadly, the logD is the decadic logarithm of the distribution of all forms, ionised or not, between an organic phase and buffer at a given pH. Broadly, the fraction unbound is free concentration divided by total concentration. For orientation: clearance means the volume of plasma or blood freed of the substance per unit of time. Low values mean inefficient removal, high ones efficient removal. `CCc1ncn(CC(=O)N2CCN(c3sc(C(F)(F)F)nc3-c3cnc(C(F)(F)F)nc3)C[C@H]2CCO)n1`: the pIC50 is 7.35 in series [1] and 5.01 in series [2]. Besides, the microsomal CLint at 1 µM is less than 10 µL/min/mg in [3], 0.33 µL/min/mg in series [5], 13 µL/min/mg in series [10] and less than 10 µL/min/mg in series [11]. Moreover, the CLH in [4] is 0.09 µL/min/mg; in series [12] it was less than 2 µL/min/mg; in series [13], 3.2 µL/min/mg; in series [14], less than 2 µL/min/mg. The logD in series [6] worked out at 2.8. Also, the figures for the free fraction (fraction unbound) at 6 h, 1 µM in series [7], in series [8] and in series [9] were 0.15, 0.045 and 0.3, respectively. The clearance stood at 14 mL/min/kg in [15] and 19 mL/min/kg in [17]. Besides, the CL free in [16] was 311 mL/min/kg; in [18], 64 mL/min/kg. Further, the dose excreted in series [19] worked out at 37%.
Consider `Cc1ccn(CC(=O)N2CCN(c3sc(C(F)(F)F)nc3-c3cnc(C(F)(F)F)nc3)C[C@@H]2CO)n1`, for which the pIC50 in series [1] is 7.13; in series [2] it was 4.68. Moreover, the microsomal CLint at 1 µM in series [3] was less than 10 µL/min/mg; in [20], 0.41 µL/min/mg; in series [5], 1.18 µL/min/mg; in series [10], 13 µL/min/mg; in series [11], 16 µL/min/mg. Moreover, in series [6], the logD was 3. Further, the fraction unbound at 6 h, 1 µM in series [7] stood at 0.11; in series [8], 0.01; in series [9], 0.22. The figures for the CLH in series [12], in [13] and in series [14] were less than 2 µL/min/mg, 2.8 µL/min/mg and 2.4 µL/min/mg, respectively. In addition, the clearance in [15] was determined as 7.1 mL/min/kg; in series [17], 22 mL/min/kg. The CL free is 710 mL/min/kg in series [16] and 100 mL/min/kg in series [18]. Moreover, the dose excreted in series [21] is 1%.
